The source made the active and inactive calls.
Key:
Type in all cases: functional, organism-based
[1] = tested on: Staphylococcus aureus; assay: Antimicrobial activity against Staphylococcus aureus at 40 ug/disc by agar diffusion method
[2] = tested on: Bacillus subtilis; assay: Antimicrobial activity against Bacillus subtilis ATCC 6051 at 40 ug/disc by agar diffusion method
[3] = tested on: Streptomyces viridochromogenes; assay: Antimicrobial activity against Streptomyces viridochromogenes Tue57 at 40 ug/disc by agar diffusion method
[4] = tested on: Escherichia coli; assay: Antimicrobial activity against Escherichia coli at 40 ug/disc by agar diffusion method
[5] = tested on: Rhizomucor miehei; assay: Antimicrobial activity against Mucor miehei Tu 284 at 40 ug/disc by agar diffusion method
[6] = tested on: Candida albicans; assay: Antimicrobial activity against Candida albicans at 40 ug/disc by agar diffusion method
[7] = tested on: Chlorella vulgaris; assay: Antimicrobial activity against Chlorella vulgaris at 40 ug/disc by agar diffusion method
[8] = tested on: Chlorella sorokiniana; assay: Antimicrobial activity against Chlorella sorokiniana at 40 ug/disc by agar diffusion method
[9] = tested on: Desmodesmus subspicatus; assay: Antimicrobial activity against Scenedesmus subspicatus at 40 ug/disc by agar diffusion method

Measured: Activity

COc1cc(C2=N[C@H]([C@@H]3SC[C@H]4[C@@H]5SC[C@](C)(C(=O)N43)N5C)CS2)c(O)c2ccccc12
inactive: all assays above

COc1cc(-c2nc(CO)cs2)c(O)c2ccccc12
inactive: all assays above

COc1cc(C2=N[C@H](CO)CS2)c(O)c2ccccc12
inactive: all assays above

Reference: ChEMBL document CHEMBL4480461, “Karamomycins A-C: 2-Naphthalen-2-yl-thiazoles from Nonomuraea endophytica” (J Nat Prod, 2019)
